# Source: patent US20230158031A1, “Treatment of Acute Respiratory Distress Syndrome and Other Disorders Involving Cytokine Storm Using BTK Inhibitors” (Principia Biopharma Inc., priority 2020, published 2023)
# How the values were obtained:
# [1] = test system: BioMAP human primary cell-based co-culture systems; assay: BioMAP Diversity PLUS Panel; details: FIG. 8
# Text: The BioMAP Diversity Plus Panel (FIG. 7) provides broad phenotypic profiles for pharmaceutically active agents. The panel uses 12 individual BioMAP human primary cell-based co-culture systems to predictively model drug effects on multiple tissues and disease states, providing 148 clinically relevant biomarker readouts. […] The LDLR gene is associated with the low-density lipoprotein receptor, which binds low-density lipoproteins that carry cholesterol in blood. […] Decreased MCP-1, sTNFα, eotaxin-3, ICAM-1, IL-la, and IL-8 and increased sPGE2 is associated with PRN1008's inflammation related activities. Decreased CD38, sIgG, sIL-17A, sIL-2, sIL-6, and M-CSF and increased CD69 are associated with PRN1008's immunomodulatory activities. Decreased MMP-9, uPA, and PAI-I is associated with PRN 1008's tissue remodeling activities. Decreased thrombomodulin (TM) and modulated tissue factor (TF) is associated with PRN1008's hemostasis-related activities. Thus, the BioMAP Diversity Plus Panel data for PRN1008 supports its anti-inflammatory and cytokine inhibition mechanisms.
# [2] = test system: anti-GBM glomerulonephritis; assay: Mouse anti-GBM glomerulonephritis model; assay type: in vivo; details: for kidney pathology: kidney histology after Study Day 10, relative to Dex 1 mg/kg QD
# Protocol: The mouse anti-GBM glomerulonephritis model involves antibody mediated autoimmunity, and the model is histologically and mechanistically similar to glomerulonephritis in humans. The model also includes kidney deposition of immune complexes (IC), targeting glomerular basement membrane. The efficacy of Compound (IB) (also referred to as PRN1008) relative to the corticosteroid dexamethasone (Dex) was tested in a mouse anti-GBM glomerulonephritis model according to the design shown in FIG. 1. Briefly, to induce glomerulonephritis, mice were pre-sensitized with sheep IgG/FCA (Study Day −5). Five days later (Study Day 0), the mice received anti-GBM sheep IgG. Treatment with vehicle, Compound (IB), or Dex with various dosage regimes (Compound (IB): 10 mg/kg, 20 mg/kg, or 40 mg/kg QD or 20 mg/kg BID; Dex: 1 mg/kg QD; Vehicle: QD or BID) began at Study Day −1, one day prior to injection with anti-GBM sheep IgG. Treatment continued until Study Day 10, for […] treatment in total. Urine protein analysis was conducted on Study Days −6, −4, −1, 1, 3, 6, 8, and 10. Following Study Day 10, mice serum BUN levels were analyzed as a measure of kidney function, and kidney histology was performed.
# neutrophils [3] = assay: Neutrophil recruitment to the necrotic zone following sterile liver injury (heat injury); assay type: in vivo; details: 4 h after heat injury; spinning disc time-lapse microscopy; FIG. 9B
# neutrophils [4] = assay: Neutrophil intraluminal crawling following fMLP-mediated arrest in vivo (intravital microscopy, cremaster); details: compared to vehicle control; cremaster superfused with fMLP (10 μM), time-lapse microscopy 2 h; FIG. 9A
# Text: Following post-adhesion strengthening, neutrophils undertake Mac-1 (an integrin) dependent migratory activity on the vascular side of the vessel wall prior to transmigration ([…] and Zarbock 2013). Previous studies have highlighted the importance of this step for successful neutrophil recruitment (Phillipson et al. 2006). To investigate the effects of Btk inhibition on this step of the leukocyte recruitment cascade, intraluminal crawling following fMLP (N-formylmethionine-leucyl-phenylalanine)-mediated arrest in vivo was investigated. Using intravital microscopy, intravascular crawling of neutrophils was examined as described previously (Phillipson et al. 2006). Briefly, anti-Gr-1 antibody (clone RB6-8C5), labelled with Alexa Fluor 488 (Molecular Probes, Eugene, Oreg., USA), was injected via the cannulated carotid artery prior to the experiment. Following preparation and exteriorization, the cremaster was superfused with fMLP (10 μM) and time-lapse microscopy was performed for 2 h. The number of adherent cells was determined.
# [5] = inflammation related activities
smiles,measurement,setting,value
"CC(C)(C=C(C#N)C(=O)N1CCC[C@@H](n2nc(-c3ccc(Oc4ccccc4)cc3F)c3c(N)ncnc32)C1)N1CCN(C2COC2)CC1 [Compound (IB), 2-[(3R)-3-[4-amino-3-(2-fluoro-4-phenoxy-phenyl)pyrazolo[3,4-d]pyrimidin-1-yl]piperidine-1-carbonyl]-4-methyl-4-[4-(oxetan-3-yl)piperazin-1-yl]pent-2-enenitrile]",LDLR,[1]; BioMAP Profile,decreased
same,"anti-proliferative activity, B cells",[1]; BioMAP Profile,Anti-proliferative activities
same,"anti-proliferative activity, T cells",[1]; BioMAP Profile,Anti-proliferative activities
same,"anti-proliferative activity, coronary artery smooth muscle cells",[1]; BioMAP Profile,Anti-proliferative activities
same,"anti-proliferative activity, endothelial cells",[1]; BioMAP Profile,Anti-proliferative activities
same,"anti-proliferative activity, fibroblasts",[1]; BioMAP Profile,Anti-proliferative activities
same,thrombomodulin (TM),[1]; hemostasis-related activities,Decreased
same,tissue factor (TF),[1]; hemostasis-related activities,modulated
same,CD38,[1]; immunomodulatory activities,Decreased
same,CD69,[1]; immunomodulatory activities,increased
same,M-CSF,[1]; immunomodulatory activities,Decreased
same,sIL-2,[1]; immunomodulatory activities,Decreased
same,sIL-6,[1]; immunomodulatory activities,Decreased
same,sIL-17A,[1]; immunomodulatory activities,Decreased
same,sIgG,[1]; immunomodulatory activities,Decreased
same,ICAM-1,[1]; [5],Decreased
same,IL-8,[1]; [5],Decreased
same,IL-la,[1]; [5],Decreased
same,MCP-1,[1]; [5],Decreased
same,eotaxin-3,[1]; [5],Decreased
same,sPGE2,[1]; [5],increased
same,sTNFα,[1]; [5],Decreased
same,MMP-9,[1]; tissue remodeling activities,Decreased
same,PAI-I,[1]; tissue remodeling activities,Decreased
same,uPA,[1]; tissue remodeling activities,Decreased
same,kidney weight gain (a surrogate for kidney inflammation),"[2]; 10, 20 or 40 mg/kg QD or 20 mg/kg BID, FIG. 5",dose dependent inhibition
same,serum blood urea nitrogen (BUN) levels,"[2]; 10, 20 or 40 mg/kg QD or 20 mg/kg BID, Study Day -1 to 10, FIG. 2",dose dependent inhibition
same,severe proteinuria,"[2]; 10, 20 or 40 mg/kg QD or 20 mg/kg BID, Study Day -1 to 10, FIG. 3",dose dependent inhibition
same,kidney pathology,[2]; FIG. 6,reduced kidney pathology
same,kidney pathology,"[2]; FIG. 6, listed as PRN1008","significantly reduced kidney pathology, superior to a steroid comparator (Dex)"
same,proteinuria during the study,"[2]; urine protein analysis Study Days -6 to 10, FIG. 4",reduced proteinuria
"CC(C)(C)C=C(C#N)C(=O)N1CCC[C@@H](n2nc(-c3ccc(Oc4ccccc4)cc3F)c3c(N)ncnc32)C1 [Compound (IA), (R)-2-(3-(4-amino-3-(2-fluoro-4-phenoxyphenyl)-1H-pyrazolo[3,4-d]pyrimidin-1-yl)piperidine-1-carbonyl)-4,4-dimethylpent-2-enenitrile]",neutrophil recruitment following sterile liver injury,neutrophils [3],abolish neutrophil recruitment
same,migratory activity of neutrophils (arrested cells that crawled),neutrophils [4],severely decreased
